# Reference: patent publication US7683168B2, “Compositions of novel opioid compounds and method of use thereof” (priority 2005, dated 2010)
# What was measured:
# [1] = target: T1, human delta receptor (Homo sapiens, UniProt P41143); experiment: radioligand binding, human delta receptor, HEK-293 cell membranes; conditions: cell not marked (rat), species not given, read-out: δ
# T1 construct: purchased Perkin Elmer, Boston, Mass; 6110549; host or cells: HEK-293 cells
# [2] = target: T2, human mu opioid receptor (Homo sapiens, UniProt P35372); experiment: radioligand binding, human mu opioid receptor, CHO cell membranes; conditions: species not given, read-out: μ
# T2 construct: purchased Perkin Elmer, Boston, Mass; 6110535; host or cells: CHO cells
# T2 sequence (P35372 whole entry): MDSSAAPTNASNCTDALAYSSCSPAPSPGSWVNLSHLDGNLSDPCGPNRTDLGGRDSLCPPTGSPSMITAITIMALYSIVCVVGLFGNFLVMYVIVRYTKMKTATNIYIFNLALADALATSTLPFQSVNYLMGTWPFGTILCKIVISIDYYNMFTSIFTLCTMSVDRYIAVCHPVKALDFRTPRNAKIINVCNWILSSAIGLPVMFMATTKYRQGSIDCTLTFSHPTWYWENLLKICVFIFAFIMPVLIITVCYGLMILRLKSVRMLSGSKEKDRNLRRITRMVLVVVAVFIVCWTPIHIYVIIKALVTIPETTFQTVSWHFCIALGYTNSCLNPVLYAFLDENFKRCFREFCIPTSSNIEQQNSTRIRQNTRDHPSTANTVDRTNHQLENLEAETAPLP
# [3] = test system: mouse vas deferens; experiment: electrically stimulated mouse vas deferens (MVD) ED50; type: cell-based; conditions: ED50, inhibition of electrically induced contractions
# [4] = test system: guinea pig ileum; experiment: electrically stimulated guinea pig ileum (GPI) ED50; type: cell-based; conditions: Cavia porcellus; ED50, inhibition of electrically induced contractions
# Experimental: Further the compounds of formula (1) were evaluated for in vitro opioid receptor activity in various receptor systems, including mouse vas deferens (Mouse Vas Deferens ED50), and guinea pig ileum (Guinea Pig Ileum ED50). The assay procedures used for such determinations of receptor activity are set out below.
# Intact ileums (about 3 cm length) were removed from guinea pig and suspended with 1 g of tension in a bath chamber as described for the vasa deferentia. The ileums were stimulated with electrical square-wave pulses of 0.1-Hz, 1 msec pulse duration at supramaximal voltage.
# The ED50 values were extrapolated from curves showing the dose concentration plotted against the response (J. A. H. Lord, A. A. Waterfield, J. Hughes, H. W. Kosterlitz, Nature 267, 495, (1977)).
# [5] = test system: seizure-like convulsions in mice; experiment: mouse seizure-like convulsions; type: in vivo
# Experimental: Mouse Seizure-Like Convulsions and antinociception: The central (CNS) effects of the compound were tested with central delta receptor mediated seizure-like convulsions and central mu opioid receptor mediated antinociceptive effects in mice. Male CD-1 mice (Charles River, Raleigh, N.C.) weighing 20-25 g were used to determine the seizure-like convulsion and antinociception activities for compounds.
# They were then observed for seizure-like convulsions for one hour following the treatment. A seizure-like event was recorded if a mouse had uncontrollable clonic (or tonic/clonic) muscle movements that encompassed its entire body, usually followed by a brief cataleptic period. Catalepsy was determined by placing the animal's front paws on a horizontal bar held 2-3 inches from the cage floor. Cataleptic animals made no attempt to remove their paws.
# T1 sequence (P41143 whole entry): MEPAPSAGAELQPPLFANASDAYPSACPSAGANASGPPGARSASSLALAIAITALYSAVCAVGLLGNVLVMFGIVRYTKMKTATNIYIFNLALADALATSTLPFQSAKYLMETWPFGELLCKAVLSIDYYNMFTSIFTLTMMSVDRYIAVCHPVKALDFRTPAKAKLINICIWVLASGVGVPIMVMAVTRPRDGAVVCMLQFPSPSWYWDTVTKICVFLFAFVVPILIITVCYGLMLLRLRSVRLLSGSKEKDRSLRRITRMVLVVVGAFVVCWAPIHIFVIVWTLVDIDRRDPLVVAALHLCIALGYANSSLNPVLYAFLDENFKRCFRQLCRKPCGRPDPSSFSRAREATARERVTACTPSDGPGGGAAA
Compound,Ki [1],Ki [2],EC50 [3],EC50 [4],Seiz. ([5]; 10 mg/kg IV),Seiz. ([5]; 20 mg/kg IV),Seiz. ([5]; 200 mg/kg PO & SC)
CCOC(=O)CN1CCCN(C(=O)c2cccc(C(c3cccc(O)c3)N3C[C@@H](C)N(Cc4ccccc4)C[C@@H]3C)c2)CC1 (stereo partly shown),0.21 nM,0.56 nM,2.4 nM,526 nM,60% 10 mg/kg IV,–,–
C[C@@H]1CN(C(c2cccc(O)c2)c2cccc(C(=O)N3CCCN(CC(=O)O)CC3)c2)[C@@H](C)CN1Cc1ccccc1 (stereo partly shown),–,1.27 nM,1.4 nM,> 1000 nM,–,0% 20 mg/kg IV,–
CCOC(=O)CN1CCCN(C(=O)c2cccc(C(c3cccc(O)c3)N3C[C@@H](C)N(Cc4cccc(F)c4)C[C@@H]3C)c2)CC1 (stereo partly shown),5.4 nM,2.6 nM,13.4 nM,761 nM,20% 10 mg/kg IV,–,–
CCOC(=O)CCN1CCCN(C(=O)c2cccc([C@H](c3cccc(O)c3)N3C[C@@H](C)N(Cc4cccc(F)c4)C[C@@H]3C)c2)CC1,71 nM,4.8 nM,17.1 nM,978 nM,20% 10 mg/kg IV,–,–
C[C@@H]1CN([C@@H](c2cccc(O)c2)c2cccc(C(=O)N3CCCN(CCC(=O)O)CC3)c2)[C@@H](C)CN1Cc1cccc(F)c1,4.17 nM,7.7 nM,4 nM,154 nM,–,0% 200 mg/kg PO & SC 0% 20 mg/kg IV,0% 200 mg/kg PO & SC 0% 20 mg/kg IV
CCOC(=O)CCN1CCCN(C(=O)c2cccc([C@H](c3cccc(O)c3)N3C[C@@H](C)N(CC4CC4)C[C@@H]3C)c2)CC1,121 nM,2.9 nM,22.6 nM,567 nM,0% 10 mg/kg IV,–,–
C[C@@H]1CN([C@@H](c2cccc(O)c2)c2cccc(C(=O)N3CCCN(CCC(=O)O)CC3)c2)[C@@H](C)CN1CC1CC1,69 nM,22.3 nM,66 nM,664 nM,–,0% 20 mg/kg IV,–
C[C@@H]1CN(C(c2cccc(O)c2)c2cccc(C(=O)N3CCCN(CCCC(=O)O)CC3)c2)[C@@H](C)CN1Cc1ccccc1 (stereo partly shown),14.8 nM,1.9 nM,1.07 nM,159 nM,0% 10 mg/kg IV,–,–
CCOC(=O)CCCN1CCCN(C(=O)c2cccc(C(c3cccc(O)c3)N3C[C@@H](C)N(Cc4cccc(F)c4)C[C@@H]3C)c2)CC1 (stereo partly shown),1.7 nM,2.3 nM,30 nM,1500 nM,–,–,–
C[C@@H]1CN(C(c2cccc(O)c2)c2cccc(C(=O)N3CCCN(CCCCCC(=O)O)CC3)c2)[C@@H](C)CN1Cc1ccccc1 (stereo partly shown),2.8 nM,3.9 nM,3.26 nM,303 nM,–,–,–
C=CCN1C[C@H](C)N(C(c2cccc(O)c2)c2cccc(C(=O)N3CCCN(Cc4ccc(C(=O)O)cc4)CC3)c2)C[C@H]1C (stereo partly shown),0.39 nM,4 nM,3.1 nM,150 nM,0% 10 mg/kg IV,–,–
"CCOC(=O)CN1CCN(C(=O)c2cccc([C@H](c3cccc(O)c3)N3C[C@@H](C)N(Cc4ccccc4)C[C@@H]3C)c2)CC1 [Example 68, (4-{3-[(R)-((2S,5R)-4-Benzyl-2,5-dimethyl-piperazin-1-yl)-(3-hydroxy-phenyl)-methyl]-benzoyl}-piperazin-1-yl)-acetic acid ethyl ester]",0.73 nM,1.22 nM,1.91 nM,526 nM,80% 10 mg/kg IV,–,–
"CCOC(=O)CCCCCN1CCN(C(=O)c2cccc([C@H](c3cccc(O)c3)N3C[C@@H](C)N(Cc4ccccc4)C[C@@H]3C)c2)CC1 [Example 96, 6-(4-{3-[(R)-((2S,5R)-4-Benzyl-2,5-dimethyl-piperazin-1-yl)-(3-hydroxy-phenyl)-methyl]-benzoyl}-piperazin-1-yl)-hexanoic acid ethyl ester]",6.9 nM,2 nM,10.4 nM,–,60% 10 mg/kg IV,–,–
"C[C@@H]1CN([C@@H](c2cccc(O)c2)c2cccc(C(=O)N3CCN(CCCCCC(=O)O)CC3)c2)[C@@H](C)CN1Cc1ccccc1 [Example 97, 6-(4-{3-[(R)-((2S,5R)-4-Benzyl-2,5-dimethyl-piperazin-1-yl)-(3-hydroxy-phenyl)-methyl]-benzoyl}-piperazin-1-yl)-hexanoic acid]",1.2 nM,–,2.5 nM,445 nM,0% 10 mg/kg IV,–,–
"C[C@@H]1CN([C@@H](c2cccc(O)c2)c2cccc(C(=O)N3CCN(CCCCCCC(=O)O)CC3)c2)[C@@H](C)CN1Cc1ccccc1 [Example 111, 7-(4-{3-[(R)-((2S,5R)-4-Benzyl-2,5-dimethyl-piperazin-1-yl)-(3-hydroxy-phenyl)-methyl]-benzoyl}-piperazin-1-yl)-heptanoic acid]",0.77 nM,8.7 nM,3.82 nM,–,0% 10 mg/kg IV,–,–
"C=CCN1C[C@H](C)N([C@@H](c2cccc(O)c2)c2cccc(C(=O)N3CCC(C(=O)O)CC3)c2)C[C@H]1C [Example 120, 1-{3-[(R)-((2S,5R)-4-Allyl-2,5-dimethyl-piperazin-1-yl)-(3-hydroxy-phenyl)-methyl]-benzoyl}-piperidine-4-carboxylic acid]",–,4.1 nM,2.49 nM,48.6 nM,10% 10 mg/kg IV,–,–
"C[C@@H]1CN([C@@H](c2cccc(O)c2)c2cccc(C(=O)N3CCC(C(=O)O)CC3)c2)[C@@H](C)CN1Cc1ccccc1 [Example 123, 1-{3-[(R)-((2S,5R)-4-Benzyl-2,5-dimethyl-piperazin-1-yl)-(3-hydroxy-phenyl)-methyl]-benzoyl}-piperidine-4-carboxylic acid]",–,–,0.48 nM,17.8 nM,0% 10 mg/kg IV,–,–
"C[C@@H]1CN([C@@H](c2cccc(O)c2)c2cccc(C(=O)N3CCC(C(=O)O)CC3)c2)[C@@H](C)CN1Cc1cccc(F)c1 [Example 125, 1-{3-[(R)-[(2S,5R)-4-(3-Fluoro-benzyl)-2,5-dimethyl-piperazin-1-yl]-(3-hydroxyphenyl)-methyl]-benzoyl}-piperidine-4-carboxylic acid]",–,–,1.42 nM,46.7 nM,0% 10 mg/kg IV,–,–
"C[C@@H]1CN([C@@H](c2cccc(O)c2)c2cccc(C(=O)N3CCC(C(=O)O)CC3)c2)[C@@H](C)CN1CC1CC1 [Example 127, 1-{3-[(R)-((1S,4R)-4-Cyclopropylmethyl-2,5-dimethyl-piperazin-1-yl)-(3-hydroxy-phenyl)-methyl]-benzoyl}-piperidine-4-carboxylic acid]",4.35 nM,–,11.5 nM,242 nM,0% 10 mg/kg IV,–,–
"C=CCN1C[C@H](C)N([C@@H](c2cccc(O)c2)c2cccc(C(=O)N3CCC(=CC(=O)O)CC3)c2)C[C@H]1C [Example 138, (1-{3-[(R)-((2S,5R)-4-allyl-2,5-dimethyl-1-piperazinyl)(3-hydroxyphenyl)methyl]-benzoyl}-4-piperidinylidene)acetic acid]",0.63 nM,7.4 nM,1.35 nM,–,0% 10 mg/kg IV,–,–
"C=CCN1C[C@H](C)N([C@@H](c2cccc(O)c2)c2cccc(C(=O)N3CCC(NCc4ccc(C(=O)O)cc4)CC3)c2)C[C@H]1C [Example 140, 4-[(1-{3-[(R)-((2S,5R)-4-Allyl-2,5-dimethyl-piperazin-1-yl)-(3-hydroxy-phenyl)-methyl]-benzoyl}-piperidin-4-ylamino)-methyl]-benzoic acid]",1.2 nM,4.6 nM,6.74 nM,–,0% 10 mg/kg IV,–,–
"C=CCN1C[C@H](C)N([C@@H](c2cccc(O)c2)c2cccc(C(=O)N3CCC(NCCCC(=O)O)CC3)c2)C[C@H]1C [Example 142, 4-(1-{3-[(R)-((2S,5R)-4-Allyl-2,5-dimethyl-piperazin-1-yl)-(3-hydroxy-phenyl)-methyl]-benzoyl}-piperidin-4-ylamino)-butyric acid]",1.7 nM,8.7 nM,12.5 nM,–,0% 10 mg/kg IV,–,–
"C=CCN1C[C@H](C)N([C@@H](c2cccc(O)c2)c2cccc(C(=O)N3CCC[C@H]3C(=O)OC)c2)C[C@H]1C [Example 143, 1-{3-[(R)-((2S,5R)-4-Allyl-2,5-dimethyl-piperazin-1-yl)-(3-hydroxy-phenyl)-methyl]-benzoyl}-pyrrolidine-2-carboxylic acid (S)-methyl ester]",1.5 nM,0.5 nM,1.79 nM,–,10% 10 mg/kg IV,–,–
